# Test results: ChEMBL document CHEMBL1817632, “Synthesis and cytotoxic activity of the heptaphylline and 7-methoxyheptaphylline series” (Eur J Med Chem, 2011)
# The source made the active and inactive calls. The rule behind the calls is not given here.
# Key:
# NCI-H187 [1] = experiment: Cytotoxicity against human NCI-H187 cells after 5 days by resazurin microplate assay; type: functional, cell-based; conditions: NCI-H187, 120 h
# KB [2] = experiment: Cytotoxicity against human KB cells after 3 days by resazurin microplate assay; type: functional, cell-based; conditions: 72 h
# Vero [3] = experiment: Cytotoxicity against african green monkey Vero cells expressing green fluorescent protein after 4 days by fluorescence analysis; type: cell-based; conditions: chlorocebus sabaeus, 96 h
# Vero [4] = experiment: Cytotoxicity against african green monkey Vero cells expressing green fluorescent protein at > 200 uM after 4 days by fluorescence analysis; type: cell-based; conditions: chlorocebus sabaeus, 96 h
# NCI-H187 [5] = experiment: Cytotoxicity against human NCI-H187 cells at >200 uM after 5 days by resazurin microplate assay; type: functional, cell-based
# KB [6] = experiment: Cytotoxicity against human KB cells at >200 uM after 3 days by resazurin microplate assay; type: functional, cell-based
# NCI-H187 [7] = experiment: Ratio of Ellipticine IC50 to compound IC50 for human NCI-H187 cells; type: functional
# KB [8] = experiment: Ratio of Ellipticine IC50 to compound IC50 for human KB cells; type: functional
SMILES,IC50 (NCI-H187 [1]) [µM],IC50 (KB [2]) [µM],IC50 (Vero [3]) [µM],Activity (Vero [4]),Activity (NCI-H187 [5]),Activity (KB [6]),Ratio IC50 (NCI-H187 [7]),Ratio IC50 (KB [8])
COc1c(C=O)cc2c([nH]c3ccccc32)c1CC=C(C)C,4.49,12.8,170,,,,,
CC1(C)CCc2c(c(C=O)cc3c2[nH]c2ccccc23)O1,65.2,26.4,,Non-toxic,,,,
CC1(C)OC1Cc1c(O)c(C=O)cc2c1[nH]c1ccccc12 (stereo not given),5.31,54.8,74.5,,,,,
COc1ccc2c(c1)[nH]c1c3c(c(C=O)cc12)OC(C)(C)C(O)C3 (stereo not given),3.04,120,,Non-toxic,,,,
Cc1c2ccncc2c(C)c2c1[nH]c1ccccc12 [ELLIPTECINE],2.77,,3.82,,,,,
COc1ccc2c(c1)[nH]c1c3c(c(C=O)cc12)OC(C(C)(C)O)C3 (stereo not given),12.9,71.2,,Non-toxic,,,,
COc1cc2[nH]c3c4c(c(C=O)cc3c2cc1Br)OC(C)(C)C(Br)C4 (stereo not given),,,,Non-toxic,inactive,inactive,,
COc1ccc2c(c1)[nH]c1c(CC=C(C)C)c(O)c(/C=N\O)cc12,3.67,18.2,,Non-toxic,,,,
CC(C)=CCc1c(O)c(C=O)cc2c3ccccc3n(C)c12,44.2,166,34.6,,,,,
COc1ccc2c(c1)[nH]c1c(CC=C(C)C)c(O)c(C=O)cc12,,,,Non-toxic,,,,
CC(C)=CCc1c(O)c(/C=N\O)cc2c1[nH]c1ccccc12 [HEPTAPHYLLINE OXIME],0.02,0.17,66,,,,138,10
CC(C)(O)C(Br)Cc1c(O)c(C=O)cc2c1[nH]c1ccccc12 (stereo not given),30.2,17.4,,Non-toxic,,,,
COc1c(C=O)cc2c3ccccc3n(C)c2c1CC=C(C)C,62.5,147,149,,,,,
COc1ccc2c(c1)[nH]c1c(CC=C(C)C)c(OC)c(C=O)cc12,19.5,11,61.1,,,,,
CC1(C)Oc2c(C=O)cc3c([nH]c4ccccc43)c2CC1O (stereo not given),6.06,5.99,,Non-toxic,,,,
COc1ccc2c3cc(C=O)c(OC)c(CC=C(C)C)c3n(C)c2c1,4.83,69.8,45.9,,,,,
CC1(C)Oc2c(C=O)cc3c([nH]c4ccccc43)c2CC1Br (stereo not given),77.4,6,,Non-toxic,,,,
COc1cc2[nH]c3c(CC(Br)C(C)(C)O)c(O)c(C=O)cc3c2cc1Br (stereo not given),0.66,36.3,12.5,,,,4,
COc1ccc2c(c1)[nH]c1c(CC3OC3(C)C)c(O)c(C=O)cc12 (stereo not given),20.1,9.22,75.3,,,,,
COc1ccc2c(c1)[nH]c1c3c(c(C=O)cc12)OC(C)(C)CC3,,,,Non-toxic,inactive,inactive,,
